Results from patent publication US11013236B2, “Pesticidal Flavobacterium strain and bioactive compositions metabolites and uses” (Marrone Bio Innovations, Inc., priority 2012, dated 2021).

Assays:
M. incognita [1] = test: Greenhouse cone test of polyketide 1, tomato (cv. UC82) as host; assay type: in vivo, Meloidogyne incognita; details: compared to water control
Method: The nematicidal activity of polyketide 1 (MW 176 compound) against root-knot nematodes was further assessed in greenhouse in cone tests using M. incognita and tomato (cv. UC82) as a host. The tomato seeds were germinated in vermiculate and 3-week-old seedlings were transferred to the cones containing mixture of sand and top soil (1:1). Two weeks after transplanting, tomato plants were treated with the samples. […] Four different concentrations (100, 10, 1, & 0.1 μg/mL) of the polyketide prepared in 4% methanol (MeOH) were dosed as 10 mL of soil drench into each pot. Each treatment was tested in 5 replicates. Following the drench each pot was inoculated with 1000 nematode eggs suspended in 1 mL of water. The dosing of the product was repeated after two weeks. Three weeks later, the inoculation test was terminated and the following parameters were scored: number of galls/root, gall index and fresh top weight.

[2] = system: nematode juveniles (J2) of M. incognita (Monsanto strain); test: Dose response % immotility for synthesized polyketide, 6-well plate immobility bioassay; assay type: in vivo, Meloidogyne incognita; details: tested 0.14-1.69 mg/mL in DMSO; 24 h exposure, 24 h on water agar; FIG. 23
Method: The synthetic polyketide (MW 176) was tested at several doses (concentrations tested were 0.14, 0.28, 0.42, 0.56, 0.84, 1.13, 1.69 mg/mL of polyketide in DMSO) in the 6-well plate immobility bioassay to find the optimal dose of this compound needed in order to detect nematicidal activity. In this particular assay the nematode juveniles (J2) of M. incognita (Monsanto strain) were first exposed to the tested samples in 96-well plate: 50 μl of water containing approximately 300 J2 were mixed with 3 μl of polyketide sample or controls (avid (2%) as positive control or DMSO and water as negative controls, respectively. After 24 h incubation, 20 μl of J2 suspension from each well was transferred into the wells of 6-well plates filled with water agar (3 mL of 1% agar per each well). The plates were left open for 10-15 min to allow the solutions to dry out. Afterwards, circles were drawn around the J2 suspension and initial numbers of J2 inside the circles were counted under the stereomicroscope. The plates were incubated for another 24 h and the numbers of J2 that remained immotile (i.e. were still present inside the circles) were counted using stereomicroscope. The % of nematode immotility was expressed as: [(number of immotile nematodes after 24 h incubation/initial number of J2)*100%].

Erwinia amylovora = test: Antimicrobial agar disc assay; assay type: cell-based
Method: (§1) The pure 1-(4-hydroxyphenyl) pent-1-en-3-one (1) “polyketide MW 176” was tested against various microbial pathogens using agar disc assay.

Xanthomonas campestris = test: Antimicrobial agar disc assay; assay type: cell-based
Method: as §1

Bacillus cereus = test: Antimicrobial agar disc assay; assay type: cell-based
Method: as §1

[3] = system: Avidovorax avenae subsp. citrulli; test: Antimicrobial agar disc assay; assay type: cell-based
Method: as §1

M. incognita [4] = test: In vitro 96-well plate bioassay of purified peaks of fraction 3; assay type: in vivo, Meloidogyne incognita; details: 24 hour at 25° C.
Method: (§2) Once the purification of fraction 3 is complete and all of the desired peaks/compounds are collected as described above, each peak is tested in an in vitro 96-well plastic cell-culture plate extract bioassay in order to identify the peak/s that contain the desired active metabolite/s.
(§3) 15-20 nematodes in a […] water solution are exposed to […] of a 20 mg/ml peak concentrate (1.13 mg/ml total exposure) for a 24 hour period at 25° C. Once the incubation period is completed, results are recorded based on a visual grading of immotility of the J2s in each well treated with H492 purified peaks of H1 to H39, plus H29-A derived from fraction 3, each treatment is tested in four replicates. Three controls are included in each trial; one positive control (1% avid). and two negative controls (DMSO and water). Trial 1 (T1) was carried out using the method described above with M. hapla, trial 2 and 3 (T2 and T3) were carried out using the latter method with M. incognita (FIG. 22).

M. hapla = test: as above; assay type: in vivo, Meloidogyne hapla; details: 24 hour at 25° C.
Method: as §2, §3

nematodes (J2's) = test: SAR motility bioassay of synthetic analogues; assay type: in vivo; details: 3 μL at 20 mg/ml into 50 μl with approximately 300 J2's, 24 hours, then 24 hour recovery on 1.5% water agar; average of 6 repetitions
Method: To quickly understand which part of the 1-(4-hydroxyphenyl) pent-1-en-3-one (1) molecule (polyketide) plays a crucial role on the nematicidal activity, a series of structural analogues were synthesized and evaluated using motility test. This bioassay serves to distinguish the differences in efficacy by measuring the recovery and the mobility of the nematodes after being exposed to any given compound with 6 repetitions per treatment. This bioassay involves the following procedure: 3 μL (at 20 mg/ml) of the sample are dispensed into 50 μl of approximately 300 J2's in a 96-well plastic cell-culture plate. After 24 hours, 100-150 of the treated J2's were transferred into 6-well plates that contain 1.5% water agar. After drying of the test sample on the agar, the initial drop was marked and initial counts of the J2's were carried out. After another 24 hour recovery period, the immobilization of the juveniles were measured by counting the number of J2's that moved from the initial circle and an average of the 6 repetitions were calculated to get the percent immobilization of each sample.

**Q.** For `CCC(=O)/C=C/c1ccc(O)cc1` [Compound 1, 1-(4-hydroxyphenyl) pent-1-en-3-one], which gall index (M. incognita [1]; 0.1 mg/ml, 10 mL soil drench, 1st test) is on record?
**A.** significantly reduced

**Q.** What about the “gall index and galls per root” value (M. incognita [1]; 0.001 & 0.01 mg/ml, 10 mL soil drench, 1st test) of the same compound?
**A.** significantly reduced

**Q.** What about the gall index (M. incognita [1]; all tested dilutions, 2nd test) of the same compound?
**A.** significantly reduced

**Q.** What about the “optimal range required for good nematicidal activity (% immotility)” value [2] of the same compound?
**A.** ≥ 0.5 mg/mL

**Q.** What about the antimicrobial activity (Erwinia amylovora) of the same compound?
**A.** potent activity

**Q.** And the antimicrobial activity (Xanthomonas campestris)?
**A.** moderate activity

**Q.** What about the antimicrobial activity (Bacillus cereus) of the same compound?
**A.** moderate activity

**Q.** And the antimicrobial activity [3]?
**A.** moderate activity

**Q.** What about the “Potency in in vitro assay (immotility of J2s)” value (M. incognita [4]) of the same compound?
**A.** confirmed

**Q.** And the “Potency in in vitro assay (immotility of J2s)” value (M. hapla)?
**A.** confirmed

**Q.** Which Average % immobility (nematodes (J2's)) does the source give for `CC(=O)/C=C/c1ccccc1` [SAR-1, (E)-4-phenylbut-3-en-2-one] here?
**A.** 99%

**Q.** Which Average % immobility (nematodes (J2's)) does the source give for `O=C(/C=C/c1ccccc1)c1ccccc1` [SAR-2, Benzalacetophenone] here?
**A.** 4%

**Q.** How did the Average % immobility (nematodes (J2's)) turn out when `CC(=O)/C=C/c1ccccc1O` [SAR-3, (E)-4-(2-hydroxyphenyl)but-3-en-2-one] was run?
**A.** 95%

**Q.** For `CC(=O)/C=C/C=C/c1ccccc1` [SAR-4, (3E,5E)-6-phenylhexa-3,5-dien-2-one], which Average % immobility (nematodes (J2's)) is on record?
**A.** 97%

**Q.** With `O=C(/C=C/C=C/c1ccccc1)c1ccccc1` [SAR-5, (2E,4E)-1,5-diphenylpenta-2,4-dien-1-one] as the compound, how does the Average % immobility (nematodes (J2's)) read?
**A.** 98%

**Q.** With `CCC(=O)/C=C/c1ccccc1O` [SAR-6, (E)-1-(2-hydroxyphenyl)pent-1-en-3-one] as the compound, how does the Average % immobility (nematodes (J2's)) read?
**A.** 98%

**Q.** `O=C(/C=C/c1ccccc1O)c1ccccc1` [SAR-7, (E)-3-(2-hydroxyphenyl)-1-phenylprop-2-en-1-one] was tested. Which Average % immobility (nematodes (J2's)) did it give?
**A.** 99%

**Q.** How did the Average % immobility (nematodes (J2's)) turn out when `CC(C)CC(=O)/C=C/c1ccccc1O` [SAR-8, (E)-1-(2-hydroxyphenyl)-5-methylhex-1-en-3-one] was run?
**A.** 100%

**Q.** Which Average % immobility (nematodes (J2's)) does the source give for `O=C(/C=C/c1ccc(O)cc1)c1ccccc1` [SAR-9, (E)-3-(4-hydroxyphenyl)-1-phenylprop-2-en-1-one] here?
**A.** 100%

**Q.** For `CC(C)CC(=O)/C=C/c1ccc(O)cc1` [SAR-10, (E)-1-(4-hydroxyphenyl)-5-methylhex-1-en-3-one], which Average % immobility (nematodes (J2's)) is on record?
**A.** 96%

**Q.** How did the Average % immobility (nematodes (J2's)) turn out when `CC(=O)/C=C/c1cccc(O)c1` [SAR-11, (E)-4-(3-hydroxyphenyl)but-3-en-2-one] was run?
**A.** 99%

**Q.** For `CC(=O)/C=C/c1ccccc1O` [SAR-12, (E)-4-(2-hydroxyphenyl)but-3-en-2-one], which Average % immobility (nematodes (J2's)) is on record?
**A.** 99%

**Q.** How did the Average % immobility (nematodes (J2's)) turn out when `O=Cc1ccccc1OCC(=O)c1ccccc1` [SAR-13, 2-(2′-phenyl-2-oxoethoxy) benzaldehyde] was run?
**A.** 74%

**Q.** `CC(=O)/C(C)=C/c1ccccc1O` [SAR-14, (E)-4-(2-hydroxyphenyl)-3-methylbut-3-en-2-one] was tested. Which Average % immobility (nematodes (J2's)) did it give?
**A.** 97%

**Q.** `CC/C=C/C(=O)c1ccccc1` [SAR-15, (E)-1-phenylpent-2-en-1-one] was tested. Which Average % immobility (nematodes (J2's)) did it give?
**A.** 20%

**Q.** Which Average % immobility (nematodes (J2's)) does the source give for `CC/C=C\CC/C=C/C(C)=O` [SAR-16, (3E,7Z)-deca-3,7-dien-2-one] here?
**A.** 94%

**Q.** With `O=C(/C=C/c1cccc(O)c1)/C=C/c1cccc(O)c1` [SAR-18, (1E,4E)-1,5-bis(3-hydroxyphenyl) penta-1,4-dien-3-one] as the compound, how does the Average % immobility (nematodes (J2's)) read?
**A.** 23%

**Q.** For `O=C(/C=C/Cc1ccccc1)c1ccccc1` [SAR-19, (E)-1,4-diphenylbut-2-en-1-one], which Average % immobility (nematodes (J2's)) is on record?
**A.** 64%

**Q.** How did the Average % immobility (nematodes (J2's)) turn out when `O=C(/C=C/Cc1ccccc1)c1ccc(O)cc1` [SAR-20, (E)-1-(4-hydroxyphenyl)-4-phenylbut-2-en-1-one] was run?
**A.** 28%

**Q.** Which Average % immobility (nematodes (J2's)) does the source give for `C/C(=C\c1cccc(O)c1)C(=O)/C=C/c1cccc(O)c1` [SAR-21, (1E,4E)-1,5-bis(3-hydroxyphenyl)-2-methylpenta-1,4-dien-3-one] here?
**A.** 12%

**Q.** `O=C(/C=C/c1cccc(O)c1)c1ccccc1` [SAR-22, (E)-3-(3-hydroxyphenyl)-1-phenylprop-2-en-1-one] was tested. Which Average % immobility (nematodes (J2's)) did it give?
**A.** 70%

**Q.** How did the Average % immobility (nematodes (J2's)) turn out when `CCC(=O)/C=C/c1ccccc1` [SAR-23, (E)-1-phenylpent-1-en-3-one] was run?
**A.** 80%

**Q.** How did the Average % immobility (nematodes (J2's)) turn out when `CC(=O)/C(C)=C/c1ccc(O)cc1` [SAR-24, (E)-4-(4-hydroxyphenyl)-3-methylbut-3-en-2-one] was run?
**A.** 80%

**Q.** Which Average % immobility (nematodes (J2's)) does the source give for `CC(C)CC(=O)/C=C/c1ccccc1` [SAR-25, (E)-5-methyl-1-phenylhex-1-en-3-one] here?
**A.** 79%

**Q.** For `O=C(CBr)c1ccccc1` [SAR-26, 2-bromo-1-phenylethanone], which Average % immobility (nematodes (J2's)) is on record?
**A.** 50%

**Q.** For `CC(C)CC(=O)/C=C/c1cccc(O)c1` [SAR-27, (E)-1-(3-hydroxyphenyl)-5-methylhex-1-en-3-one], which Average % immobility (nematodes (J2's)) is on record?
**A.** 78%

**Q.** With `CC(=O)/C=C/c1ccc(O)cc1` [SAR-28, (E)-4-(4-hydroxyphenyl)but-3-en-2-one] as the compound, how does the Average % immobility (nematodes (J2's)) read?
**A.** 78%

**Q.** Which Average % immobility (nematodes (J2's)) does the source give for `O=Cc1cccc(O)c1` [SAR-29, 3-hydroxybenzaldehyde] here?
**A.** 70%

**Q.** For `O=Cc1ccc(O)cc1` [SAR-30, 4-hydroxybenzaldehyde], which Average % immobility (nematodes (J2's)) is on record?
**A.** 58%

**Q.** `O=Cc1ccccc1O` [SAR-31, 2-hydroxybenzaldehyde] was tested. Which Average % immobility (nematodes (J2's)) did it give?
**A.** 58%

**Q.** Which Average % immobility (nematodes (J2's)) does the source give for `O=Cc1ccccc1` [SAR-32, Benzaldehyde] here?
**A.** 65%

**Q.** With `CCCCCCCCC1CCC(=O)O1` (stereo not shown) [SAR-33, γ-dodecalactone] as the compound, how does the Average % immobility (nematodes (J2's)) read?
**A.** 63%

**Q.** How did the Average % immobility (nematodes (J2's)) turn out when `CCCCC1CCC(=O)O1` (stereo not shown) [SAR-34, γ-octalactone] was run?
**A.** 21%

**Q.** With `CCCCCCC(C)=O` [SAR-35, 2-octanone] as the compound, how does the Average % immobility (nematodes (J2's)) read?
**A.** 33%

**Q.** How did the Average % immobility (nematodes (J2's)) turn out when `CCCCCC(C)=O` [SAR-36, 2-heptanone] was run?
**A.** 21%

**Q.** For `CCCCCCCCCC(C)=O` [SAR-37, 2-undecanone], which Average % immobility (nematodes (J2's)) is on record?
**A.** 67%

**Q.** How did the Average % immobility (nematodes (J2's)) turn out when `CC/C=C\CCC=O` [SAR-38, cis-4-heptenal] was run?
**A.** 21%

**Q.** `CC(=O)CC(C)C` [SAR-39, 4-methyl-2-pentanone] was tested. Which Average % immobility (nematodes (J2's)) did it give?
**A.** 54%

**Q.** Which Average % immobility (nematodes (J2's)) does the source give for `CC(C)C=O` [SAR-40, iso-butyraldehyde] here?
**A.** 79%

**Q.** How did the Average % immobility (nematodes (J2's)) turn out when `CC(=O)CC(C)(C)O` [SAR-41, 4-hydroxy-4-methylpentanone] was run?
**A.** 21%

**Q.** Which Average % immobility (nematodes (J2's)) does the source give for `COc1ccccc1C=O` [SAR-42, o-anisaldehyde] here?
**A.** 8%

**Q.** For `CCC(C)=O` [SAR-43, 2-butanone], which Average % immobility (nematodes (J2's)) is on record?
**A.** 21%
